What all share (assay type): in vivo
For experiment [1], the system named is two-spotted spider mite. In words: effectiveness against two-spotted spider mite. The conditions noted are these: comparison in words, FIG. 12. The protocol:
(§1) The chain lengths were systematically varied to determine if the chain length was critical as to the effectiveness as insecticides. The compounds were tested against pear psylla, tobacco hornworms, tobacco aphids and two-spotted spider mites.

Experiment [2] deals with tobacco aphid. As to the kind of experiment: effectiveness against tobacco aphid. The settings on record: comparison in words, FIG. 9-11. On the procedure: as §1
Experiment [3] can be described thus: insecticidal activity, insect not specified. The settings on record: general statement, insect not named.
In experiment [4] the test system is pear psylla. As to the kind of experiment: kill of pear psylla by polyol esters. The settings on record: comparison in words, FIG. 1, 6, 7. The protocol: as §1

Entries after “also recorded” stand apart in the source; their conditions may differ.

Take “D-Glucitol, decanoate [sorbitol decanoate]”: in experiment [1], the “effectiveness against two-spotted spider mite” value is on record as “marginally more effective than the others”. The “effectiveness against tobacco aphid” value in experiment [2] is on record as “more effective than xylitol laurate; also recorded: better than a commercially available insecticidal soap product”.
With “D-Glucitol, octanoate [sorbitol octanoate]”, in experiment [3], the “effectiveness as insecticide / insecticidal activity” value was “more effective as insecticides”. The “effectiveness (kill data) on pear psylla” value in experiment [4] is recorded as “the most effective”. Further, in experiment [2], the “effectiveness against tobacco aphid” value is on record as “more effective than sorbitol decanoate”.
For Xylitol decanoate, the “effectiveness as insecticide / insecticidal activity” value in experiment [3] is recorded as “the most effective for xylitol”. The “effectiveness (kill data) on pear psylla” value in experiment [4] is “most effective”; in experiment [4] (listed as C10 acid ester) it was “the most effective”.
Turning to Xylitol dodecanoate [xylitol laurate], in experiment [2], the “effectiveness against tobacco aphid” value is given as “more effective than xylitol decanoate; also recorded: better than a commercially available insecticidal soap product”.
As to sucrose octanoate, the “effectiveness as insecticide / insecticidal activity” value in experiment [3] is “the monoesters were more effective as insecticides than the diesters and triesters”. In experiment [4], the “effectiveness (kill data) on pear psylla” value was “monoesters that are more effective as insecticides than the diesters and triesters”.
Consider “sucrose stearate [commercial sucrose stearate product]”, for which, in experiment [3], the “effectiveness as insecticide / insecticidal activity” value was “does not have insecticidal activity”.

The values are drawn from US6419941B1, “Polyol ester insecticides and method of synthesis” (AVA Chemical Ventures L.L.C., priority 2000, dated 2002).
